{
  "source": "patent US11726082B2",
  "about": "“Screening method of drug candidates for treating disease using interaction between calcium and phosphatidylinositol phosphate” (Gachon University of Industry—Academic Cooperation …, priority 2017, dated 2023)",
  "molecules": {"B1": {"name": "SHIP2: co-treated with the C2-Akt and PI3K vectors (protein, UniProt O15357 1-1258, looked up)", "Phosphatidylinositol …": "MASACGAPGPGGALGSQAPSWYHRDLSRAAAEELLARAGRDGSFLVRDSESVAGAFALCVLYQKHVHTYRILPDGEDFLAVQTSQGVPVRRFQTLGELIGLYAQPNQGLVCALLLPVEGEREPDPPDDRDASDGEDEKPPLPPRSGSTSISAPTGPSSPLPAPETPTAPAAESAPNGLSTVSHDYLKGSYGLDLEAVRGGASHLPHLTRTLATSCRRLHSEVDKVLSGLEILSKVFDQQSSPMVTRLLQQQNLPQTGEQELESLVLKLSVLKDFLSGIQKKALKALQDMSSTAPPAPQPSTRKAKTIPVQAFEVKLDVTLGDLTKIGKSQKFTLSVDVEGGRLVLLRRQRDSQEDWTTFTHDRIRQLIKSQRVQNKLGVVFEKEKDRTQRKDFIFVSARKREAFCQLLQLMKNKHSKQDEPDMISVFIGTWNMGSVPPPKNVTSWFTSKGLGKTLDEVTVTIPHDIYVFGTQENSVGDREWLDLLRGGLKELTDLDYRPIAMQSLWNIKVAVLVKPEHENRISHVSTSSVKTGIANTLGNKGAVGVSFMFNGTSFGFVNCHLTSGNEKTARRNQNYLDILRLLSLGDRQLNAFDISLRFTHLFWFGDLNYRLDMDIQEILNYISRKEFEPLLRVDQLNLEREKHKVFLRFSEEEISFPPTYRYERGSRDTYAWHKQKPTGVRTNVPSWCDRILWKSYPETHIICNSYGCTDDIVTSDHSPVFGTFEVGVTSQFISKKGLSKTSDQAYIEFESIEAIVKTASRTKFFIEFYSTCLEEYKKSFENDAQSSDNINFLKVQWSSRQLPTLKPILADIEYLQDQHLLLTVKSMDGYESYGECVVALKSMIGSTAQQFLTFLSHRGEETGNIRGSMKVRVPTERLGTRERLYEWISIDKDEAGAKSKAPSVSRGSQEPRSGSRKPAFTEASCPLSRLFEEPEKPPPTGRPPAPPRAAPREEPLTPRLKPEGAPEPEGVAAPPPKNSFNNPAYYVLEGVPHQLLPPEPPSPARAPVPSATKNKVAITVPAPQLGHHRHPRVGEGSSSDEESGGTLPPPDFPPPPLPDSAIFLPPSLDPLPGPVVRGRGGAEARGPPPPKAHPRPPLPPGPSPASTFLGEVASGDDRSCSVLQMAKTLSEVDYAPAGPARSALLPGPLELQPPRGLPSDYGRPLSFPPPRIRESIQEDLAEEAPCLQGGRASGLGEAGMSAWLRAIGLERYEEGLVHNGWDDLEFLSDITEEDLEEAGVQDPAHKRLLLDTLQLSK"}},
  "key": {"[1]": {"system": "human HepG2 cells", "test": "Intracellular calcium concentration with Fluo-3 AM in insulin resistance induced cells", "type": "cell-based", "details": "PA 0, 100, 300 or 500 μM, 24 hours", "procedure": "First, male C57BL/6 mice at 8 weeks (Orient Bio, Korea) were raised in an animal facility of Lee Gil Ya Cancer and Diabetes Institute (Gachon University, Korea). Particularly, the mice were raised in a sterile chamber at the temperature of 23±1° C. with 12 hr/12 hr light/dark cycle, and free dietary environment. At this time, the mice were divided into the fasted group wherein the mice were fasted for 16 hours and the refed group wherein the mice were fasted for 16 hours and then fed for 4 hours. Each group was sub-divided into the high fat diet group (HFD) and the normal diet group (chow). The high fat diet group (HFD) mice were fed with diet containing 60% fat, while the normal diet group (chow) mice were fed with diet containing 10% fat. 8 weeks later, the mice were anesthetized and the liver was perfused by using buffer 1 (142 mM NaCl, 6.7 mM KCl, 10 mM HEPES and 2.5 mM EGTA, pH 7.4). Buffer 1 above was replaced with buffer 2 (0.5 mg/Mg […], 66.7 mM NaCl, 6.7 mM KCl, 10 mM HEPES and 4.8 mM CaCl, pH 7.6), and then the perfused liver was extracted. The extracted liver was washed and degraded by using Percoll cushion gradient. The degraded cells were suspended and cultured in Hepatozyme-SFM (Gibco-BRL USA) culture medium supplemented with 10% FBS and 1% antibiotics and antifungal agent. […] The mounted cells were analyzed using a fluorescence microscope (Zeiss Axioplan 2). […]"}, "[2]": {"system": "human HepG2 cells", "test": "Intracellular calcium dynamics with Fura-2 AM in insulin resistance induced cells", "type": "cell-based", "details": "PA", "procedure": "First, human HepG2 cells were cultured in DMEM (Dulbecco's Modified Eagle Medium) supplemented with 10% fetal bovine serum (FBS), 25 mM glucose, 2 mM L-glutamine, 100 U/Ml of penicillin and 100 μg/Ml of streptomycin. At this time, the culture was performed in a 37° C., 5% CO2 incubator. The cultured cells were distributed in a culture plate at the density of 5.0×10^5 cells/well, followed by further culture for overnight. Palmitic acid (PA) was added to the plate at the concentration of 0, 100, 300 or 500 μM, followed by reaction for 24 hours. Then, the concentration of calcium was investigated by using Fluo-3 AM according to the same conditions and procedures as described in Example 1, and the results are shown in FIG. 2A and FIG. 2B.\nIntracellular calcium dynamics was confirmed in the fatty liver cell model constructed in vitro by inducing insulin resistance. At this time, the experiment was performed by the same manner under the same conditions as described in Example 3 except that Fura-2 AM was used instead of Fluo-3 AM."}, "[3]": {"system": "Akt protein", "test": "Western blotting of Akt protein phosphorylation in insulin-treated HepG2 cells", "type": "cell-based, human", "details": "PA 24 hours, 100 nM insulin 15 minutes, compared with insulin alone", "procedure": "First, male C57BL/6 mice at 8 weeks were divided into the fasted group wherein the mice were fasted for 16 hours and the refed group wherein the mice were fasted for 16 hours and then fed for 4 hours. Each group was sub-divided into the high fat diet group (HFD) and the normal diet group (chow). The liver cells were extracted from the raised mice by the same manner and under the same conditions as described in Example 1. The extracted liver cells were lysed in a lysis buffer containing phosphatase (Sigma-Aldrich, USA) and protease inhibitor (Sigma-Aldrich, USA). Proteins extracted from 2 to 3 mg of the liver tissue were homogenized by using a tissue homogenizer (TissuLyser, Qiagen, USA) for 1.5 minutes at a frequency of 1/30 sec. The homogenized lysate was centrifuged at 12,000 rpm for 15 minutes and the supernatant was obtained. The amount of the extracted protein was quantified by using a protein assay kit (Bio-Rad Laboratories, USA), and at this time BSA was used as a standard sample. 3 mg of the protein was mixed with 6× loading buffer, followed by electrophoresis using 10% SDS-PAGE gel. The electrophoresed protein was transferred onto a polyvinylidene fluoride (PVDF) membrane by using a transfer buffer at 4° C. with 120 V for 1.5 hours. The PVDF membrane on which the protein was transferred was pretreated with a blocking buffer prepared by mixing 5% skim milk with TBS buffer (TBS-T, pH 7.6) supplemented with Tween 20 for 30 minutes, and the membrane was washed with TBS-T. The washed membrane was added with the antibody against Akt (Cell Signaling Technology, USA), Akt(T308) (Cell Signaling Technology, USA), Akt(S473) (Cell Signaling Technology, USA), FOXO3A (Cell Signaling Technology, USA), FOXO3A(S253) (Cell Signaling Technology, USA), GSK-3β (Cell Signaling Technology, USA) or GSK-3β(S9) (Cell Signaling Technology, USA) protein as a primary antibody, followed by reaction at 4° C. for 12 hours. At this time, the antibody against actin (Santa Cruz Biotechnology, USA) protein was used for the control group. Upon completion of the reaction, the secondary antibody corresponding to the primary antibody was added thereto, followed by reaction at room temperature for 30 minutes. The PVDF membrane was washed with TBS-T buffer three times. The washed PVDF membrane was added with ECL solution (Thermo Scientific, USA), followed by image observation.\nTo investigate the changes in insulin sensitivity when insulin was added to the fatty liver cell model constructed in vitro, the phosphorylations of those proteins that were involved in insulin signal transduction were examined. PA was added to the human HepG2 cells prepared in Example 3, followed by reaction for 24 hours. […]"}, "[4]": {"system": "Akt protein", "test": "Western blot of Akt activity with C2-Akt fusion protein and PI3K co-treated with PTEN or SHIP2", "type": "cell-based", "details": "cells with C2-Akt fusion protein and PI3K vectors co-treated with PTEN or SHIP2", "procedure": "Particularly, the experiment was performed by the same manner under the same conditions as described in Example 2 except that the vector expressing the C2-Akt fusion protein and the vector expressing PI3K protein were co-treated with PTEN or SHIP2 and the antibody against Akt (Cell Signaling Technology, USA), Akt(T308) (Cell Signaling Technology, USA), Akt(S473) (Cell Signaling Technology, USA), PI3K (Cell Signaling Technology, USA), PTEN (Cell Signaling Technology, USA) or SHIP2 (Upstate Biotechnology, USA) protein was used as the primary antibody."}},
  "data": [
    {"molecule": "CCCCCCCCCCCCCCCC(=O)O", "note": "[PA, Palmitic acid]", "values": [
      {"measurement": "concentration of calcium in the cytoplasm", "setting": "[1]", "result": "increased"},
      {"measurement": "intracellular calcium concentration", "setting": "[2]", "result": "significantly increased"},
      {"measurement": "Akt protein phosphorylation", "setting": "[3]", "result": "significantly inhibited"}
    ]},
    {"molecule": "B1", "values": [
      {"measurement": "Akt protein activity", "setting": "[4]", "result": "reduced"}
    ]}
  ]
}
